Values quoted from earlier work in patent publication US20210069213A1, “COMPOSITION AND METHOD OF TREATMENT FOR DRY A.M.D. (AGE RELATED MACULAR DEGENERATION)” (EYE CO PTY LTD, priority 2018, published 2021).

What was measured:
[1] = target: T1, glucocorticoid receptor (Homo sapiens, UniProt P04150); conditions: cited from earlier work; for GR potency: Table 1, hydrocortisone (cortisol) = 1
T1 sequence (P04150 1-777): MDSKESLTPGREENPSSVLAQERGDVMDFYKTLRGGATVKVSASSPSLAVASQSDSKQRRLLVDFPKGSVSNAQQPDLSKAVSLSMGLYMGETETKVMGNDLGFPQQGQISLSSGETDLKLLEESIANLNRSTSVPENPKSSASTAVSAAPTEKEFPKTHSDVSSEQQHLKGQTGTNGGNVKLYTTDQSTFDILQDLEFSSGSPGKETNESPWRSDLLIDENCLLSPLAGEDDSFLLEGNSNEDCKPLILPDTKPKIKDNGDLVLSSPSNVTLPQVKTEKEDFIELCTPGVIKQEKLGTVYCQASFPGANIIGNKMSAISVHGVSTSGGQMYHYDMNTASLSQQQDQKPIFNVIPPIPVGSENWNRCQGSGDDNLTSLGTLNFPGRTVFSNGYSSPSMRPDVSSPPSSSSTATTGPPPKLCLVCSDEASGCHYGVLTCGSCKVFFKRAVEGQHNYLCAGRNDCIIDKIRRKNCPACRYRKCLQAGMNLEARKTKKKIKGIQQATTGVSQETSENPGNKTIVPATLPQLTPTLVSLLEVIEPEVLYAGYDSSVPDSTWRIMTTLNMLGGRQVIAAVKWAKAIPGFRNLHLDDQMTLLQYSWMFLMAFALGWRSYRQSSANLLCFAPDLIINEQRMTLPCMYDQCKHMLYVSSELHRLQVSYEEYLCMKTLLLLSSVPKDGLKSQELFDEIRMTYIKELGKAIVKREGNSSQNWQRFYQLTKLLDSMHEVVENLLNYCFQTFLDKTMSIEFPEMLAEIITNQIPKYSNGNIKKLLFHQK

[2] = target: T2, mineralocorticoid receptor (Homo sapiens, UniProt P08235); conditions: Table 1; hydrocortisone (cortisol) = 1; cited from earlier work
T2 sequence (P08235 1-984): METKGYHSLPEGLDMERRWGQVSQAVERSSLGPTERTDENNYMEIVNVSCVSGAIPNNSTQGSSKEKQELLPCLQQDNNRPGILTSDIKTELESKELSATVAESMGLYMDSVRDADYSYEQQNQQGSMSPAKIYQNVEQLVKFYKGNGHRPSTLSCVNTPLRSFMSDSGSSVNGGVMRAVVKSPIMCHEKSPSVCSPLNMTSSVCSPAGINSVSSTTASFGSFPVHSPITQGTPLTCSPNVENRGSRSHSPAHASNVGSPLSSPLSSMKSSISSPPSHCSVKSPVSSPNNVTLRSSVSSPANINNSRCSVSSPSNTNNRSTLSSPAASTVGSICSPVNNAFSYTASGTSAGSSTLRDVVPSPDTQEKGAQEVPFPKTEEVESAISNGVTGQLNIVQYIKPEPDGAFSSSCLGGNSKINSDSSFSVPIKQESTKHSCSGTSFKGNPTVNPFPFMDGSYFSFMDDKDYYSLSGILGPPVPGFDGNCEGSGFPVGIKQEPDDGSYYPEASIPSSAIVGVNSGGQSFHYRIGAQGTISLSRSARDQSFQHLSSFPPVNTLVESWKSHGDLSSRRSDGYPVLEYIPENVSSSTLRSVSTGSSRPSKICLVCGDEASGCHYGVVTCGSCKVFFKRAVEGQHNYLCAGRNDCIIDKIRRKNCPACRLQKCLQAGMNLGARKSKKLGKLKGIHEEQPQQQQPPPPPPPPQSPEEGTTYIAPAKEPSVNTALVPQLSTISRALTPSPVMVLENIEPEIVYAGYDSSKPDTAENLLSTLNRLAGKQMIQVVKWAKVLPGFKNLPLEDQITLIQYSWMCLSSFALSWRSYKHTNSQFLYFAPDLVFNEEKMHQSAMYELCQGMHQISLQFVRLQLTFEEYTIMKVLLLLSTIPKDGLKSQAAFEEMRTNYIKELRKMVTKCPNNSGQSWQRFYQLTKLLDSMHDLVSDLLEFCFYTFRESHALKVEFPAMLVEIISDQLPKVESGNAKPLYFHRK

[3] = test system: New Zealand albino rabbits; conditions: cited from earlier work

SMILES	GR potency [1]	MR potency [2]	further results
C[C@]12CCC(=O)C=C1CC[C@@H]1[C@@H]2[C@@H](O)C[C@]2(C=O)[C@@H](C(=O)CO)CC[C@@H]12 [Aldosterone]	0.3	200-1000	
C[C@H]1C[C@H]2[C@@H]3CCC4=CC(=O)C=C[C@]4(C)[C@@]3(Cl)[C@@H](O)C[C@]2(C)[C@@]1(O)C(=O)CO [Beclometasone]			GR potency, given as dose equivalence ([1]; equals 14 mg oral prednisone once/day): 8 puffs 4 times a day;
C[C@]12CCC(=O)C=C1CC[C@@H]1[C@@H]2C(=O)C[C@@]2(C)[C@H]1CC[C@]2(O)C(=O)CO [Cortisone]	0.8	0.8	
CC(=O)OCC(=O)[C@H]1CC[C@H]2[C@@H]3CCC4=CC(=O)CC[C@]4(C)[C@H]3CC[C@]12C [Deoxycorticosterone acetate]	0	20	
C[C@]12CCC(=O)C=C1CC[C@@H]1[C@@H]2[C@@H](O)C[C@@]2(C)[C@H]1CC[C@]2(O)C(=O)CO [Hydrocortisone]	1	1	
C[C@]12C=CC(=O)C=C1CC[C@@H]1[C@@H]2[C@@H](O)C[C@@]2(C)[C@H]1CC[C@]2(O)C(=O)CO [Prednisolone]	4	0.8	
C[C@]12C=CC(=O)C=C1CC[C@@H]1[C@@H]2C(=O)C[C@@]2(C)[C@H]1CC[C@]2(O)C(=O)CO [Prednisone]		0.8	
C[C@]12C=CC(=O)C=C1CC[C@H]1[C@@H]3C[C@@H](O)[C@](O)(C(=O)CO)[C@@]3(C)C[C@H](O)[C@@]12F [Triamcinolone]	5	0	
C[C@]12CCC(=O)C=C1CC[C@H]1[C@@H]3CC[C@](O)(C(=O)CO)[C@@]3(C)C[C@H](O)[C@@]12F [fludrocortisone, 9-alpha fluorohydrocortisone]			ERG change in the other groups ([3]; intravitreal 2 mg, 1 mg, 400 μg/0.1 ml, two weeks after injection): no significant decrease in ERG; intravitreal (vitreous) haemorrhage ([3]; intravitreal 4 mg/0.1 mL): one eye of this group had a vitreous hemorrhage; ERG change ([3]; intravitreal 4 mg/0.1 ml, two weeks after injection): One eye in the 4 mg/0.1 ml fludrocortisone group exhibited significant decreases in ERG; signs of retinal toxicity on slit-lamp examination, indirect ophthalmoscopy, or light microscopy ([3]; rabbit, in vivo): no signs of retinal toxicity
